Measurements taken from patent US9486398B2, “Composition” (J-OIL MILLS, INC., priority 2012, dated 2016).
“Also recorded” adds a separate entry of the source.

Tested on: hairless mice Hos:HR1
Experiment: Stratum corneum water-retaining function (moisture in the keratin, corneometer, back skin)
Format: in vivo
Conditions: intragastric once a day for 28 days, menaquinone-7 10 mg/kg, collagen hydrolysate 80 mg/kg, soyasapogenol 50 mg/kg
Method: In addition to the reference diet, the test substances shown in Table 6 were administered to the study groups in Examples and Comparative Examples. By dissolving the test substances in a 0.5% carboxymethyl cellulose sodium solution (hereinafter referred to as CMC-Na solution), the composition (skin function improving agent) was prepared.
Forty two hairless mice Hos:HR1 (male, 5-week old) were prepared. Through the 1-week acclimation period and the test period, the mice were freely fed a reference diet (product name: CRF-1, manufactured by Oriental Yeast Co., Ltd.) and water. The insolation condition was set to day and night every 12 hours. After the acclimation period, grouping of 6 mice/group was performed so that the body weight between groups was homogenous.
Continuous and forced intragastric administration of the above composition was performed to the mice once a day for 28 days using a stomach tube. The reference diet and 0.05 mL per 10 g of body weight of a 0.5% CMC-Na solution were administered to the control group.
The keratin usually contains 20% to 30% of water. […] By measuring the moisture in the keratin, the stratum corneum water-retaining function (i.e., skin moisture-retaining function) of a skin function improving agent can be evaluated. […]

SMILES: CC(C)=CCC/C(C)=C/CC/C(C)=C/CC/C(C)=C/CC/C(C)=C/CC/C(C)=C/CC/C(C)=C/CC1=C(C)C(=O)c2ccccc2C1=O [Comparative Example 1, menaquinone-7]
- keratin moisture fluctuation value (moisture in the keratin, day 28 minus day before administration): no function of keratin water retention; also recorded: no stratum corneum water-retaining function
- keratin moisture fluctuation value (moisture in the keratin, day 28 minus day before administration) (listed as menaquinone-7): does not exert the keratin water-retaining function; also recorded: does not exert the stratum corneum water-retaining function
